For this experiment, the target named is Human Factor D (Homo sapiens (Human), UniProt P00746). The experiment in a line: Human Factor D Assay. Type of experiment: biochemical. An outline of the steps:
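Serum-purified Factor D (80 nM final) preincubated 5 min at room temperature with compound in 50 mM Tris, 1 M NaCl, pH 7.5. Z-L-Lys-SBz and DTNB added at 100 μM each; A405 followed every 30 s for 30 min. IC50 from nonlinear regression of rates versus concentration.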

[1] abbreviates: Factor D inhibition, assay of Example 10, read-out: IC5 (Stars).

Like-named read-outs stand apart in the source and are kept apart here. Where only a bound is given, the exact number is not on record here.

Sequence of Human Factor D (P00746 26-253): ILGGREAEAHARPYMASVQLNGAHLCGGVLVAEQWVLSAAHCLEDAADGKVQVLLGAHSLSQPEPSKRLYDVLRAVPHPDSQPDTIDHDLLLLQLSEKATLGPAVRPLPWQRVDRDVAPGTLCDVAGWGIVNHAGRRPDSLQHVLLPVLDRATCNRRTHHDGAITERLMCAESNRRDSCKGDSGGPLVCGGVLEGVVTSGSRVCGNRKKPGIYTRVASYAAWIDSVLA

Consider `CC(=O)c1nn(CC(=O)N2[C@H](C(=O)Nc3nc(Br)c(F)cc3C)C[C@@]3(CN(C)C)C[C@@H]23)c2c(C)cc(-c3cnc(C)nc3)cc12` [Compound 263, (1R,3S,5R)-2-(2-(3-acetyl-7-methyl-5-(2-methylpyrimidin-5-yl)-1H-indazol-1-yl)acetyl)-N-(6-bromo-5-fluoro-3-methylpyridin-2-yl)-5-((dimethylamino)methyl)-2-azabicyclo[3.1.0] hexane-3-carboxamide], for which the IC50 under setting [1] was less than 1000 nM.
Same read-out and setting: the same measure for `CC(=O)c1nn(CC(=O)N2[C@H](C(=O)Nc3nc(Br)c(F)cc3C)C[C@@]3(CN(C)C)C[C@@H]23)c2cnc(-c3cnc(C)nc3)cc12` [Compound 264, (1R,3S,5R)-2-(2-(3-acetyl-5-(2-methylpyrimidin-5-yl)-1H-pyrazolo[3,4-c]pyridin-1-yl)acetyl)-N-(6-bromo-5-fluoro-3-methylpyridin-2-yl)-5-((dimethylamino)methyl)-2-azabicyclo[3.1.0] hexane-3-carboxamide]: less than 1000 nM.
Regarding `C=CCCCC(=O)NC[C@@]12C[C@@H](C(=O)Nc3nc(Br)ccc3C)N(C(=O)Cn3nc(C(C)=O)c4cc(-c5cnc(C)nc5)cc(CCC=C)c43)[C@@H]1C2` [Compound 266, (1R,3S,5R)-2-(2-(3-acetyl-7-(but-3-en-l-yl)-5-(2-methylpyrimidin-5-yl)-1H-indazol-1-yl)acetyl)-N-(6-bromo-3-methylpyridin-2-yl)-5-(hex-5-enamidomethyl)-2-azabicyclo[3.1.0]hexane-3-carboxamide], under “Table 8, Factor D 80 nM, substrate Z-L-Lys-SBz, read-out: IC50”, the IC50 was less than 1000 nM.
Regarding `CC(=O)c1nn(CC(=O)N2[C@H](C(=O)Nc3nc(Br)c(F)cc3C)C[C@@]3(C)C[C@@H]23)c2c(C(F)(F)F)nc(-c3cnc(C)nc3)cc12` [Compound 271, (1R,3S,5R)-2-(2-(3-acetyl-5-(2-methylpyrimidin-5-yl)-7-(trifluoromethyl)-1H-pyrazolo[3,4-c]pyridin-1-yl)acetyl)-N-(6-bromo-5-fluoro-3-methylpyridin-2-yl)-5-methyl-2-azabicyclo[3.1.0]hexane-3-carboxamide], the IC50 under setting [1] was less than 1000 nM.
On the same count and under the same terms, the same measure for `CC(=O)c1nn(CC(=O)N2[C@H](C(=O)Nc3nc(Br)ccc3CN3CC4CC3CO4)C[C@@]3(C)C[C@@H]23)c2cnc(-c3cnc(C)nc3)cc12` (stereo partly drawn) [Compound 277, (1R,3S,5R)-N-(3-(2-oxa-5-azabicyclo[2.2.1]heptan-5-ylmethyl)-6-bromopyridin-2-yl)-2-(2-(3-acetyl-5-(2-methylpyrimidin-5-yl)-1H-pyrazolo[3,4-c]pyridin-1-yl)acetyl)-5-methyl-2-azabicyclo[3.1.0]hexane-3-carboxamide]: less than 1000 nM; for `CC(=O)c1nn(CC(=O)N2[C@H](C(=O)Nc3nc(Br)ccc3C)C[C@@]3([C@H](O)CO)C[C@@H]23)c2cnc(-c3cnc(C)nc3)cc12` [Compound 282]: less than 1000 nM.
Same read-out and setting: the same measure for `CC[C@@]12C[C@@H](C(=O)Nc3nc(Br)ccc3C)N(C(=O)Cn3nc(C(C)=O)c4cc(-c5cnc(C)nc5)ccc43)[C@@H]1C2` [Compound 286, (1R,3S,5R)-2-(2-(3-acetyl-5-(2-methylpyrimidin-5-yl)-1H-indazol-1-yl)acetyl)-N-(6-bromo-3-methylpyridin-2-yl)-5-ethyl-2-azabicyclo[3.1.0]hexane-3-carboxamide]: less than 1000 nM.
Same read-out and setting: the same measure for `CC(=O)c1nn(CC(=O)N2[C@H](C(=O)Nc3nc(Br)ccc3C)C[C@@]3(CCS(C)(=N)=O)C[C@@H]23)c2c(C)cc(-c3cnc(C)nc3)cc12` (stereo partly drawn) [Compound 287, (1R,3S,5R)-2-(2-(3-acetyl-7-methyl-5-(2-methylpyrimidin-5-yl)-1H-indazol-1-yl)acetyl)-N-(6-bromo-3-methylpyridin-2-yl)-5-(2-(S-methylsulfonimidoyl)ethyl)-2-azabicyclo[3.1.0]hexane-3-carboxamide]: less than 1000 nM.
Consider `CC(=O)c1nn(CC(=O)N2[C@H](C(=O)Nc3nc(Br)ccc3C)C[C@@]3(CCS(C)(=O)=O)C[C@@H]23)c2c(C)cc(-c3cnc(C)nc3)cc12` [Compound 288, (1R,3S,5R)-2-(2-(3-acetyl-7-methyl-5-(2-methylpyrimidin-5-yl)-1H-indazol-1-yl)acetyl)-N-(6-bromo-3-methylpyridin-2-yl)-5-(2-(methylsulfonyl)ethyl)-2-azabicyclo[3.1.0]hexane-3-carboxamide], for which, under setting [1], the IC50 was less than 1000 nM.
As to `CC(=O)c1nn(CC(=O)N2[C@H](C(=O)Nc3nc(Br)ccc3CN3C(C)(C)COCC3(C)C)C[C@@]3(C)C[C@@H]23)c2cnc(-c3cnc(C)nc3)cc12` [Compound 289, (1R,3S,5R)-2-(2-(3-acetyl-5-(2-methylpyrimidin-5-yl)-1H-pyrazolo[3,4-c]pyridin-1-yl)acetyl)-N-(6-bromo-3-((3,3,5,5-tetramethylmorpholino)methyl)pyridin-2-yl)-5-methyl-2-azabicyclo[3.1.0]hexane-3-carboxamide], under setting [1], the IC50 was less than 1000 nM.
The same measure, in the same setting: in the case of `CC(=O)c1nn(CC(=O)N2[C@H](C(=O)Nc3nc(Br)ccc3C)C[C@@]3(CN4CCCC4)C[C@@H]23)c2c(C)cc(-c3cnc(C)nc3)cc12` [Compound 296, (1R,3S,5R)-2-(2-(3-acetyl-7-methyl-5-(2-methylpyrimidin-5-yl)-1H-indazol-1-yl)acetyl)-N-(6-bromo-3-methylpyridin-2-yl)-5-(pyrrolidin-1-ylmethyl)-2-azabicyclo[3.1.0]hexane-3-carboxamide] it was less than 1000 nM; in that of `CC(=O)c1nn(CC(=O)N2[C@H](C(=O)Nc3nc(Br)ccc3C)C[C@@]3(CNC(C)C)C[C@@H]23)c2c(C)cc(-c3cnc(C)nc3)cc12` [Compound 297, (1R,3S,5R)-2-(2-(3-acetyl-7-methyl-5-(2-methylpyrimidin-5-yl)-1H-indazol-1-yl)acetyl)-N-(6-bromo-3-methylpyridin-2-yl)-5-((isopropylamino)methyl)-2-azabicyclo[3.1.0]hexane-3-carboxamide], less than 1000 nM; in that of `COC(=O)[C@@H]1CCCN1C[C@@]12C[C@@H](C(=O)Nc3nc(Br)ccc3C)N(C(=O)Cn3nc(C(C)=O)c4cc(-c5cnc(C)nc5)cc(C)c43)[C@@H]1C2` [Compound 298, methyl (((1R,3S,5R)-2-(2-(3-acetyl-7-methyl-5-(2-methylpyrimidin-5-yl)-1H-indazol-1-yl)acetyl)-3-((6-bromo-3-methylpyridin-2-yl)carbamoyl)-2-azabicyclo[3.1.0]hexan-5-yl)methyl)-L-prolinate], less than 1000 nM.
The same measure, in the same setting: in the case of `CC(=O)c1nn(CC(=O)N2[C@H](C(=O)Nc3nc(Br)ccc3C)C[C@@]3(CN4CCC[C@H]4C(=O)O)C[C@@H]23)c2c(C)cc(-c3cnc(C)nc3)cc12` [Compound 299, (((1R,3S,5R)-2-(2-(3-acetyl-7-methyl-5-(2-methylpyrimidin-5-yl)-1H-indazol-1-yl)acetyl)-3-((6-bromo-3-methylpyridin-2-yl)carbamoyl)-2-azabicyclo[3.1.0]hexan-5-yl)methyl)-L-proline] it was less than 1000 nM; in that of `CC(=O)c1nn(CC(=O)N2[C@H](C(=O)Nc3nc(Br)ccc3C)C[C@@]3(CNC(C)(C)C)C[C@@H]23)c2c(C)cc(-c3cnc(C)nc3)cc12` [Compound 300, (1R,3S,5R)-2-(2-(3-acetyl-7-methyl-5-(2-methylpyrimidin-5-yl)-1H-indazol-1-yl)acetyl)-N-(6-bromo-3-methylpyridin-2-yl)-5-((tert-butylamino)methyl)-2-azabicyclo[3.1.0]hexane-3-carboxamide], less than 1000 nM; in that of `CC(=O)c1nn(CC(=O)N2[C@H](C(=O)Nc3nc(Br)ccc3CN3C(C)(C)CCCC3(C)C)C[C@@]3(C)C[C@@H]23)c2ccc(-c3cnc(C)nc3)cc12` [Compound 302, (1R,3S,5R)-2-(2-(3-acetyl-5-(2-methylpyrimidin-5-yl)-1H-indazol-1-yl)acetyl)-N-(6-bromo-3-((2,2,6,6-tetramethylpiperidin-1-yl)methyl)pyridin-2-yl)-5-methyl-2-azabicyclo[3.1.0]hexane-3-carboxamide], less than 1000 nM.
Still for that read-out and setting: the same measure for `CC(=O)c1nn(CC(=O)N2C[C@@](F)(Cn3ccnn3)C[C@H]2C(=O)Nc2nc(Br)ccc2C)c2ccc(-c3cnc(C)nc3)cc12` [Compound 304, (2S,4R)-4-((1H-1,2,3-triazol-1-yl)methyl)-1-(2-(3-acetyl-5-(2-methylpyrimidin-5-yl)-1H-indazol-1-yl)acetyl)-N-(6-bromo-3-methylpyridin-2-yl)-4-fluoropyrrolidine-2-carboxamide]: less than 1000 nM.
As to `CC(=O)c1nn(CC(=O)N2[C@H](C(=O)Nc3nc(Br)ccc3C)C[C@@]3(CN4CCOCC4)C[C@@H]23)c2c(C)cc(-c3cnc(C)nc3)cc12` [Compound 305, (1R,3S,5R)-2-(2-(3-acetyl-7-methyl-5-(2-methylpyrimidin-5-yl)-1H-indazol-1-yl)acetyl)-N-(6-bromo-3-methylpyridin-2-yl)-5-(morpholinomethyl)-2-azabicyclo[3.1.0]hexane-3-carboxamide], under setting [1], the IC50 is less than 1000 nM.
Same read-out and setting: the same measure for `CC(=O)c1nn(CC(=O)N2[C@H](C(=O)Nc3nc(Br)ccc3C)C[C@@]3(CN4CCC(F)(F)CC4)C[C@@H]23)c2c(C)cc(-c3cnc(C)nc3)cc12` [Compound 306, (1R,3S,5R)-2-(2-(3-acetyl-7-methyl-5-(2-methylpyrimidin-5-yl)-1H-indazol-1-yl)acetyl)-N-(6-bromo-3-methylpyridin-2-yl)-5-((4,4-difluoropiperidin-1-yl)methyl)-2-azabicyclo[3.1.0]hexane-3-carboxamide]: less than 1000 nM; for `CC(=O)c1nn(CC(=O)N2[C@H](C(=O)Nc3nc(Br)ccc3C)C[C@@]3(CNC(C)(C)C)C[C@@H]23)c2ccc(-c3cnc(C)nc3)cc12` [Compound 307, (1R,3S,5R)-2-(2-(3-acetyl-5-(2-methylpyrimidin-5-yl)-1H-indazol-1-yl)acetyl)-N-(6-bromo-3-methylpyridin-2-yl)-5-((tert-butylamino)methyl)-2-azabicyclo[3.1.0]hexane-3-carboxamide]: less than 1000 nM.

(Values after patent publication US11084800B2 (Achillion Pharmaceuticals, Inc., priority 2017, dated 2021).)
